Key:
SCPMA = test: In-water applied (paddy) greenhouse weed control, SCPMA; assay type: in vivo
Experimental: Weed seeds or nutlets of the desired test plant species were planted in puddled soil (mud) prepared by mixing a shredded, non-sterilized mineral soil (50.5 percent silt, 25.5 percent clay, and 24 percent sand, with a pH of about 7.6 and an organic matter content of about 2.9 percent) and water at a 1:1 volumetric ratio. The prepared mud was dispensed in 365 mL aliquots into 16-ounce (oz.) non-perforated plastic pots with a surface area of 86.59 square centimeters (cm^2) leaving a headspace of 3 centimeters (cm) in each pot. Mud was allowed to dry overnight prior to planting or transplanting. Rice seeds were planted in Sun Gro MetroMix® 306 planting mixture, which typically has a pH of 6.0 to 6.8 and an organic matter content of about 30 percent, in plastic plug trays. Seedlings at the second or third leaf stage of growth were transplanted into 840 mL of mud contained in 32-oz. non-perforated plastic pots with a surface area of 86.59 cm^2 4 days prior to herbicide application. The paddy was created by filling the headspace of the pots with 2.5 to 3 cm of water. When required to ensure good germination and healthy plants, a fungicide treatment and/or other chemical or physical treatment was applied. The plants were grown for 4-22 days in a greenhouse with an approximate 14 h photoperiod which was maintained at about 29′C during the day and 26° C. during the night. Nutrients were added as Osmocote® (19:6:12, N:P:K+minor nutrients) at 2 g per 16-oz. pot and 4 g per 960-mL 32-oz. pot. Water was added on a regular basis to maintain the paddy flood, and supplemental lighting was provided with overhead metal halide 1000-Watt lamps as necessary. The plants were employed for testing when they reached the second or third true leaf stage.
Treatments consisted of the acid or esters of 4-amino-3-chloro-5-fluoro-6-(4-chloro-2-fluoro-3-methoxy-phenyl)pyridine-2-carboxylic acid (compound A) each formulated as an SC and various herbicidal components alone and in combination. Forms of compound A were applied on an acid equivalent basis.
(§1) Other herbicidal components were applied on an active ingredient basis and included auxin transport inhibiting (ATI) herbicides chlorflurenol-methyl (technical material), chlorflurenol (technical material), diflufenzopyr (technical material), dilfufenzopyr sodium (technical material), flurenol-methyl (technical material,) and naptalam (technical material).
Treatment requirements for each compound or herbicidal component were calculated based upon the rates being tested, the concentration of active ingredient or acid equivalent in the formulation, an application volume of 2 mL per component per pot, and an application area of 86.59 cm^2 per pot.
For formulated compounds, a measured amount was placed in an individual 100 or 200 mL glass vial and was dissolved in a volume of 1.25% (v/v) Agri-Dex® crop oil concentrate to obtain application solutions.
For technical grade compounds, a weighed amount was placed in an individual 100 to 200 mL glass vial and was dissolved in a volume of acetone to obtain concentrated stock solutions. […] The concentrated stock solutions obtained were diluted with an equivalent volume of an aqueous mixture containing 2.5% (v/v) crop oil concentrate so that the final application solutions contained 1.25% (v/v) crop oil concentrate.
Applications were made by injecting with a pipetter appropriate amounts of the application solutions, individually and sequentially, into the aqueous layer of the paddy. Control plants were treated in the same manner with the solvent blank. Applications were made so that all treated plant material received the same concentrations of acetone and crop oil concentrate.
The treated plants and control plants were placed in a greenhouse as described above and water was added as needed to maintain a paddy flood. […]

CYPIR = test: Postemergence foliar-applied greenhouse weed control, CYPIR; assay type: in vivo, Cyperus iria L.
Source text: (§2) Seeds or nutlets of the desired test plant species were planted in a soil matrix prepared by mixing a loam or sandy loam soil (e.g., 28.6 percent silt, 18.8 percent clay, and 52.6 percent sand, with a pH of about 5.8 and an organic matter content of about 1.8 percent) and calcareous grit in an 80 to 20 ratio. The soil matrix was contained in plastic pots with a volume of 1 quart and a surface area of 83.6 square centimeters (cm^2). When required to ensure good germination and healthy plants, a fungicide treatment and/or other chemical or physical treatment was applied. The plants were grown for 8-22 days in a greenhouse with an approximate 14 h photoperiod which was maintained at about 29° C. during the day and 26° C. during the night. Nutrients (Peters Excel® 15-5-15 5-Ca 2-Mg and iron chelate) were applied in the irrigation solution as needed and water was added on a regular basis. Supplemental lighting was provided with overhead metal halide 1000-Watt lamps as necessary. The plants were employed for testing when they reached the first through fourth true leaf stage.
(§3) Treatments consisted of the acid or esters of 4-amino-3-chloro-5-fluoro-6-(4-chloro-2-fluoro-3-methoxy-phenyl) pyridine-2-carboxylic acid (Compound A), each formulated as an SC (suspension concentrate), and various herbicidal components alone and in combination. Forms of compound A were applied on an acid equivalent basis.
as §1, with “chlorflurenol” for “chlorflurenol-methyl”, “chlorflurenol-methyl” for “chlorflurenol”, “diflufenzopyr” for “dilfufenzopyr”, “material)” for “material,)”
(§4) Treatment requirements were calculated based upon the rates being tested, the concentration of active ingredient or acid equivalent in the formulation, and a 12 mL application volume at a rate of 187 L/ha.
(§5) For treatments comprised of formulated and technical compounds, weighed amounts of the technical materials were placed individually in 25 mL glass vials and dissolved in a volume of 97:3 v/v acetone/DMSO to obtain 12× stock solutions, and measured amounts of the formulated compounds were placed individually in 25 mL glass vials and diluted in a volume of 1.5% (v/v) crop oil concentrate or water to obtain 12× stock solutions. […] Application solutions were prepared by adding an appropriate amount of each stock solution (e.g., 1 mL) and diluted to the appropriate final concentrations with the addition of an appropriate amount of an aqueous mixture of 1.5% (v/v) crop oil concentrate so that the final spray solutions contained 1.25% (v/v) crop oil concentrate. When required, additional water and/or 97:3 v/v acetone/DMSO was added to individual application solutions so that the final acetone and DMSO concentrations of the application solutions being compared were 8.1% and 0.25%, respectively.
(§6) All stock solutions and applications solutions were visually inspected for compound compatibility prior to application. Spray solutions were applied to the plant material with an overhead Mandel track sprayer equipped with an 8002E nozzle calibrated to deliver 187 L/ha over an application area of 0.503 m^2 at a spray height of 18 to 20 inches (46 to 50 cm) above average plant canopy height. Control plants were sprayed in the same manner with the solvent blank.
(§7) The treated plants and control plants were placed in a greenhouse as described above and watered by sub-irrigation to prevent wash-off of the test compounds. After approximately 3 weeks, the condition of the test plants as compared with that of the untreated plants was determined visually and scored on a scale of 0 to 100 percent where 0 corresponds to no injury or growth inhibition and 100 corresponds to complete kill. […]

ECHCG = test: Postemergence foliar-applied greenhouse weed control, ECHCG; assay type: in vivo, Echinochloa crusgalli (L.) Beauv.; details: 20 DAA
Source text: as §2, §3
as §1, with “chlorflurenol” for “chlorflurenol-methyl”, “chlorflurenol-methyl” for “chlorflurenol”, “diflufenzopyr” for “dilfufenzopyr”, “material)” for “material,)”
as §4, §5, §6, §7

With COc1c(Cl)ccc(-c2nc(C(=O)O)c(Cl)c(N)c2F)c1F [Compound A Acid, 4-amino-3-chloro-6-(4-chloro-2-fluoro-3-methoxyphenyl)-5-fluoropyridine-2-carboxylic acid] the “Visual Weed Control (%) Obs” value (SCPMA; 20 DAA, 8.75 gae/ha) was 0%, the “Visual Weed Control (%) Obs” value (SCPMA; 20 DAA, 17.5 gae/ha) was 0% and the “Visual Weed Control (%) Obs” value (SCPMA; 20 DAA, 35 gae/ha) was 30%. For the same compound, the “Visual Weed Control (%) Obs” value (SCPMA; 22 DAA, 8.75 gae/ha) was 0%, the “Visual Weed Control (%) Obs” value (SCPMA; 22 DAA, 17.5 gae/ha) was 0% and the “Visual Weed Control (%) Obs” value (SCPMA; 22 DAA, 35 gae/ha) was 0%. For the same compound, the “Visual Weed Control (%) Obs” value (CYPIR; 20 DAA, 4.38 gae/ha) was 30%, the “Visual Weed Control (%) Obs” value (ECHCG; 4.38 gae/ha) was 60% and the “Visual Weed Control (%) Obs” value (ECHCG; 8.75 gae/ha) was 80%.

For COc1c(Cl)ccc(-c2nc(C(=O)OCc3ccccc3)c(Cl)c(N)c2F)c1F [Compound A Benzyl Ester], the “Visual Weed Control (%) Obs” value (SCPMA; 20 DAA, 4.38 gae/ha) was 0%, the “Visual Weed Control (%) Obs” value (SCPMA; 20 DAA, 8.75 gae/ha) was 0% and the “Visual Weed Control (%) Obs” value (SCPMA; 20 DAA, 17.5 gae/ha) was 0%. For the same compound, the “Visual Weed Control (%) Obs” value (SCPMA; 22 DAA, 8.75 gae/ha) was 0%, the “Visual Weed Control (%) Obs” value (SCPMA; 22 DAA, 17.5 gae/ha) was 0% and the “Visual Weed Control (%) Obs” value (CYPIR; 20 DAA, 4.38 gae/ha) was 70%. For the same compound, the “Visual Weed Control (%) Obs” value (CYPIR; 22 DAA, 8 gae/ha) was 30% and the “Visual Weed Control (%) Obs” value (ECHCG; 4.38 gae/ha) was 60%.
